The values that follow come from patent publication US20240299421A1, “CANNABIDIOL COMPOSITIONS AND USES THEREOF” (PHARMOTECH SA, priority 2020, published 2024).

The subject of one data set is IBH horse skin lesions. As to the kind of experiment: Topical CBD oil formulation on skin lesions of horses diagnosed with IBH (pruritus score, IBH lesion score). The class given is in vivo, Equus caballus (horse) and Equus ferus caballus (poney). Particulars: 1% (w/w) CBD in sesame oil, topical once daily, 4 weeks. The protocol:
(§1) The application was made by hand (using a cotton) and a glove was used for massaging the product into the affected skin area. Each horse received at minimum 1 bottle of 100 ml on Day 1 and 1 Bottle on Day 14, administration was indicated to be daily. Larger volumes have been used for larger lesions.
(§2) Safety parameters were measured by hematology measures and serum amyloid A (SSA) measures and IBH lesion score was calculated as detailed in Fettelschoss-Gabriel et al., 2018, J Allergy Clin Immunol 142(4): 1194-1205 at the beginning and at the end of the study as a disease specific observation. […] Pruritus was scored from 1-5 for each skin area affected and was calculated taking into account 3 main factors: tail scratching; mane scratching and belly scratching on ground/floor. SUM Score Pruritus-Day 1: 6 Pruritus score was calculated for Day 1, Day 14, Day 28
Then, the mean was calculated. Main pruritus signs are: tail scratching, mane scratching, face scratching and sometimes rolling on the ground for belly scratching.

Data set [1] in a line: LC-MS/MS CBD dosing in blood/plasma after topical application. The class given is in vivo, Equus caballus (horse) and Equus ferus caballus (poney).
A short description of data set [2]: Safety parameters by hematology measures. Particulars: 1% (w/w) CBD topical, 4 weeks. Type of data set: in vivo, Equus caballus (horse) and Equus ferus caballus (poney). The protocol:
as §1, §2

For another data set, the target named is CB2 receptors (Homo sapiens, UniProt P34972). Particulars: compared with THC; cited from earlier work.

Entries after “also recorded” stand apart in the source; their conditions may differ.

CB2 receptors, sequence (P34972 whole entry): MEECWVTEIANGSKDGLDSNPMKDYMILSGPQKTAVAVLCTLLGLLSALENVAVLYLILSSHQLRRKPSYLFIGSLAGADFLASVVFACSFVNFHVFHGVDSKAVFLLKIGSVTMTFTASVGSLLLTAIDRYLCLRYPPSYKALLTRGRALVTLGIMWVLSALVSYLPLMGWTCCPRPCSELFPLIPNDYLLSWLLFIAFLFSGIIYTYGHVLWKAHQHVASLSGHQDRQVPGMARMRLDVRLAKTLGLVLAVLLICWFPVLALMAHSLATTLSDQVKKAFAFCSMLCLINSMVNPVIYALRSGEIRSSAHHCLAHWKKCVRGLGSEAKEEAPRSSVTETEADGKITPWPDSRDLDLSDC

Consider `C=C(C)[C@@H]1CCC(C)=C[C@H]1c1c(O)cc(CCCCC)cc1O` [CBD, 2-[(1R,6R)-6-isopropenyl-3-methylcyclohex-2-en-1-yl]-5-pentylbenzene-1,3-diol], for which the “IBH symptoms during treatment (IBH lesion score)” value in the data set on IBH horse skin lesions (11 animals with mild to moderate IBH) is listed as “clear decrease”. For the same compound, the “pruritus symptoms during treatment (pruritus score)” value with IBH horse skin lesions (score Day 1, Day 14, Day 28) is listed as “reduce pruritus score; also recorded: clear decrease”. Besides, in data set [1] (1% topical concentration, LC-MS/MS), the “CBD concentration in plasma” value is “not found in detectable concentrations”. In addition, the systemic absorption entry in data set [1] (at 1% topical concentration) is listed as “negligible”. Besides, in data set [2], the WBC count result was “No particular trend” and the eosinophile count entry is “No particular trend”. For the same compound, on CB2 receptors, the “affinity for CB2 receptors” value was “very low affinity”.
